Data: patent US8415380B2 (Hoffmann-La Roche Inc., priority 2007, dated 2013)

Assays:
rat mGlu2 receptor = molecular target: T1, rat mGlu2 receptor (Rattus norvegicus, UniProt P31421); assay: [3H]-LY354740 binding on mGlu2 transfected CHO cell membranes; details: 10 nM [3H]-LY354740, mGlu2 transfected CHO cell membranes, room temperature, 1 hour
T1 construct: expressed in transfected cells; membranes prepared
Source text: [^3H]-LY354740 Binding on mGlu2 Transfected CHO Cell Membranes Transfection and Cell Culture
cDNA encoding the rat mGlu2 receptor protein in pBluescript II was subcloned into the eukaryotic expression vector pcDNA I-amp from Invitrogen Ltd (Paisley, UK). This vector construct (pcD1mGR^2) was co-transfected with a psvNeo plasmid encoding the gene for neomycin resistance, into CHO cells by a modified calcium phosphate method described by Chen & Okayama (1988). The cells were maintained in Dulbecco's Modified Eagle medium with reduced L-glutamine (1 mM final concentration), 36 mg/L L-Proline and 10% dialysed foetal calf serum from Gibco-Invitrogen; the medium was supplemented with 500 microM α-methyl-4-carboxyphenylglycine (MCPG). Selection was made in the presence of G-418 (300 ug/ml final concentration). Clones were identified by reverse transcription of 5 μg total RNA, followed by PCR using mGlu2 receptor specific primers 5′-[…]-3′ and 5′-[…]-3′ in 60 mM Tris HCl (pH 10), 15 mM (NH4)2SO4, 2 mM MgCl2, 25 units/ml Taq Polymerase with 30 cycles annealing at 60° C. for 1 min., extention at 72° C. for 30 s, and 1 min. 95° C. denaturation.
Cells, cultured as above, were harvested and washed three times with cold PBS and frozen at −80° C. The pellet was resuspended in cold 20 mM HEPES-NaOH buffer containing 10 mM EDTA (pH 7.4), and homogenised with a polytron (Kinematica, A G, Littau, Switzerland) for 10 s at 10 000 rpm. After centrifugation for 30 min. at 4° C., the pellet was washed once with cold 20 mM HEPES-NaOH buffer containing 0.1 mM EDTA, (pH 7.4). After a second centrifugation for 30 min. at 4° C. the pellet was resuspended in cold 20 mM HEPES-NaOH buffer containing 0.1 mM EDTA, (pH 7.4). Protein content was measured using the Micro BCA method from Pierce-Perbio (Rockford, Ill., USA) using bovine serum albumin as standard.
After thawing, the membranes were resuspended in cold 50 mM Tris-HCl buffer containing 2 mM MgCl2 (pH 7.4) (binding buffer). The final concentration of the membranes in the assays was 25 μg protein/ml. Inhibition experiments were performed with membranes incubated with 10 nM [^3H]-LY354740 at room temperature, for 1 hour, in presence of various concentrations of the compound to be tested. Following the incubations, membranes were filtered onto Whatmann GF/B glass fiber filters or onto GF/B Unifilter plates and washed 5 times with cold binding buffer. Non specific binding was measured in the presence of 10 μM (2S,2′R,3′R)-2-(2′3′-Dicarboxycyclopropyl)glycine (DCG IV from Tocris, Ellisville, Mo. USA). After transfer of the filters into plastic vials containing 10 ml of Ultima-gold scintillation fluid from Perkin-Elmer (Boston, Mass., USA), the radioactivity was measured by liquid scintillation in a Tri-Carb 2500 TR counter (Packard, Zurich, Switzerland). For 96-Unifilter plates the radioactivity was measured after addition of Microscint 40 scintillation fluid (Perkin Elmer, Boston Mass.) using a TopCount NXT (Packard)
The inhibition curves were fitted with a four parameter logistic equation giving IC50 values, and Hill coefficients.

T1 sequence (P31421 19-872): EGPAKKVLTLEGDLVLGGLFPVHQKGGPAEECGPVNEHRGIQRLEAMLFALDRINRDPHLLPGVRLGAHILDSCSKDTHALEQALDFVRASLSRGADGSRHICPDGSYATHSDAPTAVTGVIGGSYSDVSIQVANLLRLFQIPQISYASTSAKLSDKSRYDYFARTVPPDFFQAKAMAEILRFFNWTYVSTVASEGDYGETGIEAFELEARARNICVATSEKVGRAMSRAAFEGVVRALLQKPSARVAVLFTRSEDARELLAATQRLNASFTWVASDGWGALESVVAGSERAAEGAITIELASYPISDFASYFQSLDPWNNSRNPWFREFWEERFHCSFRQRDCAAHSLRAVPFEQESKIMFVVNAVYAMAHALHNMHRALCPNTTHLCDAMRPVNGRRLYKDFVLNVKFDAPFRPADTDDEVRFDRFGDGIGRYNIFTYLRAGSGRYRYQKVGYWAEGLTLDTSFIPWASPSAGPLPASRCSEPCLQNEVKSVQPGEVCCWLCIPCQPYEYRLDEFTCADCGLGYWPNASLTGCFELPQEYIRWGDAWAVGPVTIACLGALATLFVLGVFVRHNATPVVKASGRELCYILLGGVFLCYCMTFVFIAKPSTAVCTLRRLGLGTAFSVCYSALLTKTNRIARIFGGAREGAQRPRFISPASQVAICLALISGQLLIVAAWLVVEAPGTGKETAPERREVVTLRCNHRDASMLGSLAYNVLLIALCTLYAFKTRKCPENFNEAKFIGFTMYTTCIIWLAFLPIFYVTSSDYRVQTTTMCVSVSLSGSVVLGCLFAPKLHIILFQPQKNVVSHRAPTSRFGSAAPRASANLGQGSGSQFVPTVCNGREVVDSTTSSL

| Ki (rat mGlu2 receptor) | melting point | SMILES |
| --- | --- | --- |
| 33 nM | 259 °C | Nc1ccc(-c2cn(-c3nc(-c4ccc(C(F)(F)F)nc4)cc(C(F)(F)F)n3)cn2)cn1 [Example 13, 5-{1-[4-Trifluoromethyl-6-(6-trifluoromethyl-pyridin-3-yl)-pyrimidin-2-yl]-1H-imidazol-4-yl}-pyridin-2-ylamine] |
| 3.5 nM | 269.5 °C | NS(=O)(=O)c1ccc(-c2cc(-c3nc(-c4ccc(C(F)(F)F)nc4)cc(C(F)F)n3)ccn2)s1 [Example 17, 5-{4-[4-Difluoromethyl-6-(6-trifluoromethyl-pyridin-3-yl)-pyrimidin-2-yl]-pyridin-2-yl}-thiophene-2-sulfonic acid amide] |
| 15 nM | 219.5 °C | NS(=O)(=O)c1cccc(-c2cn(-c3nc(-c4ccc(C(F)(F)F)nc4)cc(C(F)F)n3)cn2)c1 [Example 19, 3-{1-[4-Difluoromethyl-6-(6-trifluoromethyl-pyridin-3-yl)-pyrimidin-2-yl]-1H-imidazol-4-yl}-benzenesulfonamide] |
| 62 nM | 220 °C | Cc1cc(-c2ccc(C(F)(F)F)nc2)nc(-n2cnc(-c3ccc(N)nc3)c2)n1 [Example 20, 5-{1-[4-Methyl-6-(6-trifluoromethyl-pyridin-3-yl)-pyrimidin-2-yl]-1H-imidazol-4-yl}-pyridin-2-ylamine] |
| 26 nM | 187 to 188 °C | Cc1cc(-c2ccc(C(F)(F)F)nc2)cc(-c2cccc(-c3cccc(S(=O)(=O)NC(C)(C)C)c3)n2)n1 [Example 29, N-tert-Butyl-3-(6′-methyl-6″-trifluoromethyl-[2,2′;4′,3″]terpyridin-6-yl)-benzenesulfonamide] |
| 2 nM | 233 to 234 °C | Cc1cc(-c2ccc(C(F)(F)F)nc2)cc(-c2cccc(-c3cccc(S(N)(=O)=O)c3)n2)n1 [Example 30, 3-(6′-Methyl-6″-trifluoromethyl-[2,2′;4′,3″]terpyridin-6-yl)-benzenesulfonamide] |
| 42 nM | 124 to 125 °C | Cc1cc(-c2ccc(C(F)(F)F)nc2)cc(-c2cccc(-c3ccc(N)nc3)c2)n1 [Example 33, 5-[3-(6′-Methyl-6-trifluoromethyl-[3,4′]bipyridinyl-2′-yl)-phenyl]-pyridin-2-ylamine] |
